In patent US20230405071A1, “COMPOSITIONS AND METHODS USEFUL FOR MANAGEMENT OF BLOOD SUGAR” (SOLVEAT FUNCTIONAL NUTRITION SOLUTIONS LTD., priority 2020, published 2023):

Key:
[1] = human, in vivo
Protocol: Patient 1: a person, suffering from diabetic leg complications and a non-healing wound on the minimus, indicated for amputation. The patient was treated with the composition as in the example 5, TI.1-8HC, 3 grams per day, for 20 days. The treatment was supported with suitable acupuncture protocol, and topical antibiotic preparations.
Patient 2: a person, suffering from diabetes, a completer of the clinical trial similar to the described in the Example 3, proceeded with the open-label extension for further 3 months and achieved a 24% reduction in the fasting glucose levels. Thereafter the dose was increased to 1500 mg twice daily, and after one month a complete control over fasting glucose level has been achieved (below 140 mg/dL). Low-carbohydrate diets was prescribed to maintain the achievement. The patient presented a year after with fasting blood glucose of over 160; requested and was prescribed raw fan shi liu ye 10000 mg per day (as decoction—10 minutes boiling, chilling, and consumption). After 10 days the fasting blood glucose declined to between 120 and 130 mg/dL, but the patient suffered from fatigue and reverted to the experimental chocolate.
Patient 3: a person, presented during COVID-19 pandemics with fasting blood glucose of 150 mg/dL, HA1C of 7.4, with anxiety and uncontrolled eating. […]

[2] = system: L6 myotubes; assay: Glucose uptake colorimetric assay (2-deoxy glucose) in differentiated L6 cells; type: cell-based; conditions: insulin challenge versus serum-free control (FIG. 2)
Protocol: The objective of the study was to evaluate the anti-diabetic action of herbal blends. The ability to enhance glucose consumption by skeletal muscle was evaluated in L6 myotubes model in comparison to various control groups, including two known traditional reference formulae.
Cell culturing, materials preparations and all treatments were performed under sterile conditions. The L6 Cells culture medium comprised A-MEM supplemented with 100 U/ml penicillin and 100 μg/ml streptomycin and 10% FBS, sterilely filtered. The L6 cells differentiation medium comprised α-MEM supplemented with 100 U/ml penicillin and 100 μg/ml streptomycin and 2% FBS, sterilely filtered. […]
Glucose uptake assay was performed using Glucose Uptake Colorimetric Assay Kit in the non-radioactive 2-deoxy glucose derivative, according to the manufacturers' instructions in KRBH buffer, on differentiated cells. Colorimetric data was quantified by the use of a standard curve. Glucose uptake in the control (naïve cells), vehicle (DDW), and insulin-treated cells was measured.
Glucose uptake assay was then performed for the two concentrations of tested items: at 50 μg/mL and at 5 μg/mL. […] It can be readily appreciated from the FIG. 3 that the composition of eight ingredients composition was equipotent to QWS and BHT (denoted as “c1” and c2”) at the concentration of 50 μg/mL. […]

Question: Which “tolerability of treatment over extended time” value [1] does the source give for Psidium guajava L. [fan shi liu ye] here?
Answer: The value was “could not be well tolerated”.

Question: Which “glucose uptake by muscle cells” value [2] does the source give for insulin here?
Answer: Its value is “significantly increased”.
